Source: ChEMBL document CHEMBL4043275, “Design, synthesis and biological evaluation of phthalimide-alkylamine derivatives as balanced multifunctional cholinesterase and monoamine oxidase-B inhibitors for the treatment of Alzheimer's disease” (Bioorg Med Chem Lett, 2017)
pIC50: −log10 of the molar value.

Assays:
[1] = Selectivity index, ratio of IC50 for equine serum BChE to IC50 for electric eel AChE
[2] = target: T1, Amine oxidase [flavin-containing] B (Homo sapiens, UniProt P27338); assay: Inhibition of human recombinant MAO-B expressed in baculovirus infected BTI insect cells using kynuramine as substrate after 30 mins by fluorescence assay; type: cell-based
T1 sequence (P27338 whole entry): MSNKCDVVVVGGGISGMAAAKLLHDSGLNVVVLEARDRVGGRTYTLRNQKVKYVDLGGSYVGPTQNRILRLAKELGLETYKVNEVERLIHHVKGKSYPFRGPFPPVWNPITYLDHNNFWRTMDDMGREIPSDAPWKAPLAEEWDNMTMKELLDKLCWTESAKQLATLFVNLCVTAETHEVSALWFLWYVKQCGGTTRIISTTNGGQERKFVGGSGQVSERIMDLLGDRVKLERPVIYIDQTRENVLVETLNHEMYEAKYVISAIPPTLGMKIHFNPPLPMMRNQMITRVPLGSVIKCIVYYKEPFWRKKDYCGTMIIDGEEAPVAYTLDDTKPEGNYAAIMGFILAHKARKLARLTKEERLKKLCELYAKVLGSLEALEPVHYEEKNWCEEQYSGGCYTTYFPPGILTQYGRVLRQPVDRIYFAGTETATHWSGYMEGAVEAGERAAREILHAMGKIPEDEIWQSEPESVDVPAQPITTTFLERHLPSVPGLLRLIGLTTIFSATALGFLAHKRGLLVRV

[3] = target: T2, Amine oxidase [flavin-containing] A (Homo sapiens, UniProt P21397); assay: Inhibition of human recombinant MAO-A expressed in baculovirus infected BTI insect cells at 20 uM using kynuramine as substrate after 30 mins by fluorescence assay relative to control; conditions: 0.5 h
T2 sequence (P21397 whole entry): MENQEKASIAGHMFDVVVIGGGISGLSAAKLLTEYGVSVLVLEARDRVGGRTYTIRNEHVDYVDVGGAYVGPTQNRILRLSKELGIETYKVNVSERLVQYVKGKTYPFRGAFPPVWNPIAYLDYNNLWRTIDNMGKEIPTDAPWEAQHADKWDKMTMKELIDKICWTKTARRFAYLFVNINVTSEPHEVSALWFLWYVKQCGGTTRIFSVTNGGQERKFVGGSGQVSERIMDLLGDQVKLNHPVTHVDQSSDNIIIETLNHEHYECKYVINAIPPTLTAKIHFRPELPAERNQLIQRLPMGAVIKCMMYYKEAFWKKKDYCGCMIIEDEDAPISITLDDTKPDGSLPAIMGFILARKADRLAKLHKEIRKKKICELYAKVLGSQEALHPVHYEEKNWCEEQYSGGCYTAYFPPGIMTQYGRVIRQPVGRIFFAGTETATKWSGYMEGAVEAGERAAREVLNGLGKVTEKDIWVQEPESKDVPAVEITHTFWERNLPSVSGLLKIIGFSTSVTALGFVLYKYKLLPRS

Butyrylcholinesterase = Butyrylcholinesterase (Rattus norvegicus, UniProt Q9JKC1); assay: Inhibition of rat serum BChE using butyrylthiocholine chloride as substrate incubated for 15 mins by Ellman's method
Chain of Butyrylcholinesterase (Q9JKC1 whole entry): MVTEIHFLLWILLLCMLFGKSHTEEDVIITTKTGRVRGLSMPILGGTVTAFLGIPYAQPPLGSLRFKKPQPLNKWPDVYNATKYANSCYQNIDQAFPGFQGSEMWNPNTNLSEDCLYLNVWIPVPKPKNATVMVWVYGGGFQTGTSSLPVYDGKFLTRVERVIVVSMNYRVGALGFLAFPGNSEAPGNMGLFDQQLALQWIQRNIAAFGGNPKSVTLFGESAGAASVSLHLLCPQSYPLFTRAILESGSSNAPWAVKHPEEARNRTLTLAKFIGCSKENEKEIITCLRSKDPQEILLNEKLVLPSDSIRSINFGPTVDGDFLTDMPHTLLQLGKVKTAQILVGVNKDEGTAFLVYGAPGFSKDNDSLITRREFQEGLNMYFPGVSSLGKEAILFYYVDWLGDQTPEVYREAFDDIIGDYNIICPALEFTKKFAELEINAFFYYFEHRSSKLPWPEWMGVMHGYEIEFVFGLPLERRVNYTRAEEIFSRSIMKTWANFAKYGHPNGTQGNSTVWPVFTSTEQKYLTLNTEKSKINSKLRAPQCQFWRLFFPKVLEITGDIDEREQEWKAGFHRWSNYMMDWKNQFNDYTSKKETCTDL

Cholinesterase [4] = target: Cholinesterase (Equus caballus, UniProt P81908); assay: Inhibition of equine serum BChE using butyrylthiocholine chloride as substrate incubated for 15 mins by Ellman's method
Chain of Cholinesterase (Equus caballus, UniProt P81908) (P81908 whole entry): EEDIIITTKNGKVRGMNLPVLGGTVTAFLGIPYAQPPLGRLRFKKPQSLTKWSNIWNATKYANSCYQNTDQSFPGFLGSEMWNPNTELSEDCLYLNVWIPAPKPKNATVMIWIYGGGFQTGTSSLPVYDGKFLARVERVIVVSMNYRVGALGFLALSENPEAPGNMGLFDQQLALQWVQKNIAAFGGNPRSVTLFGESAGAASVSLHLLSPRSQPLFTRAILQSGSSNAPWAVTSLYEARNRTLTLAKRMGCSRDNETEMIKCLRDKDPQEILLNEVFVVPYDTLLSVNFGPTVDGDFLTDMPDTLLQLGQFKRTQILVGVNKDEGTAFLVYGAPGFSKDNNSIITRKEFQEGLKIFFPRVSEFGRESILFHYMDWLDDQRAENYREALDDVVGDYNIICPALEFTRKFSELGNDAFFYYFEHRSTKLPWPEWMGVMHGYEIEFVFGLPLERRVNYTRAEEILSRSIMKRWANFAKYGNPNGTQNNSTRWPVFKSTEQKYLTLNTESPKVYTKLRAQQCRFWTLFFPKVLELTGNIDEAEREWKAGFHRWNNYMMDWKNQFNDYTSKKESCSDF

Acetylcholinesterase [5] = target: T3, Acetylcholinesterase (Rattus norvegicus, UniProt P37136); assay: Inhibition of rat cortex homogenate AChE using acetylthiocholine chloride as substrate incubated for 15 mins by Ellman's method
T3 sequence (P37136 whole entry): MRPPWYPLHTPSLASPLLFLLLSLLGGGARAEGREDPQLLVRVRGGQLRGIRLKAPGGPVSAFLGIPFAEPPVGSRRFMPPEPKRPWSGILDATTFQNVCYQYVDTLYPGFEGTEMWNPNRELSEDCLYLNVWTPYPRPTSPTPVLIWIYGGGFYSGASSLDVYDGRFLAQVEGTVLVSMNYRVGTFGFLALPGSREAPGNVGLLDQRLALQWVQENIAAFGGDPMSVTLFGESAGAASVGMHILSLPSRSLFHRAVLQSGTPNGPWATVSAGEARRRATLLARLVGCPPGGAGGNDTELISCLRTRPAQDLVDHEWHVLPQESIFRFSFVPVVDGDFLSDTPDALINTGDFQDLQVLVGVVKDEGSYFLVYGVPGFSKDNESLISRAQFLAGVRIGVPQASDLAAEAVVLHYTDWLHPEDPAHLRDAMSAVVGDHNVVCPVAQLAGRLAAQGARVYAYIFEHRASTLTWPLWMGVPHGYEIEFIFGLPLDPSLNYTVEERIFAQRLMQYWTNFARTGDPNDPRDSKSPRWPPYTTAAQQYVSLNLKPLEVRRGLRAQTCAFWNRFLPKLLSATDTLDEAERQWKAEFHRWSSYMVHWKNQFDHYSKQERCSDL

Acetylcholinesterase [6] = target: Acetylcholinesterase (Electrophorus electricus, UniProt O42275); assay: Inhibition of electric eel AChE using acetylthiocholine chloride as substrate incubated for 15 mins by Ellman's method
Chain of Acetylcholinesterase (Electrophorus electricus, UniProt O42275) (O42275 whole entry): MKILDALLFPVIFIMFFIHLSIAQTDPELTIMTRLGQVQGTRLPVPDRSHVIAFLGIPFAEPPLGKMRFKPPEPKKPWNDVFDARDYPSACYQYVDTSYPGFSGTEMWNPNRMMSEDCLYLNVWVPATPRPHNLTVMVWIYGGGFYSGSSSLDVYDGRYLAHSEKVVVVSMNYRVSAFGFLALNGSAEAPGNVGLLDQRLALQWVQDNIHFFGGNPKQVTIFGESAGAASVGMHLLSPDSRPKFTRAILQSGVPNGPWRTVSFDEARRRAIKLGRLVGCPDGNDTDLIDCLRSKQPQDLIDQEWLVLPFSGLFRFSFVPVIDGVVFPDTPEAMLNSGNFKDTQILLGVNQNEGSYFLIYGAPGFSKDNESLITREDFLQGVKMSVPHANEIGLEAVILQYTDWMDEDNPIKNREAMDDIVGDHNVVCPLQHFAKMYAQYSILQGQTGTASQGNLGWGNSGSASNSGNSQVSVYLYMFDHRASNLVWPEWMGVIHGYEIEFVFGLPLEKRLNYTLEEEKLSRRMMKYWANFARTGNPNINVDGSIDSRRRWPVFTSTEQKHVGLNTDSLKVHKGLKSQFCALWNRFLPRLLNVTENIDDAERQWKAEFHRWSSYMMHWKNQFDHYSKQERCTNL

Cholinesterase [7] = target: Cholinesterase (Homo sapiens, UniProt P06276); assay: Inhibition of human serum BChE using butyrylthiocholine chloride as substrate incubated for 15 mins by Ellman's method
Chain of Cholinesterase (Homo sapiens, UniProt P06276) (P06276 whole entry): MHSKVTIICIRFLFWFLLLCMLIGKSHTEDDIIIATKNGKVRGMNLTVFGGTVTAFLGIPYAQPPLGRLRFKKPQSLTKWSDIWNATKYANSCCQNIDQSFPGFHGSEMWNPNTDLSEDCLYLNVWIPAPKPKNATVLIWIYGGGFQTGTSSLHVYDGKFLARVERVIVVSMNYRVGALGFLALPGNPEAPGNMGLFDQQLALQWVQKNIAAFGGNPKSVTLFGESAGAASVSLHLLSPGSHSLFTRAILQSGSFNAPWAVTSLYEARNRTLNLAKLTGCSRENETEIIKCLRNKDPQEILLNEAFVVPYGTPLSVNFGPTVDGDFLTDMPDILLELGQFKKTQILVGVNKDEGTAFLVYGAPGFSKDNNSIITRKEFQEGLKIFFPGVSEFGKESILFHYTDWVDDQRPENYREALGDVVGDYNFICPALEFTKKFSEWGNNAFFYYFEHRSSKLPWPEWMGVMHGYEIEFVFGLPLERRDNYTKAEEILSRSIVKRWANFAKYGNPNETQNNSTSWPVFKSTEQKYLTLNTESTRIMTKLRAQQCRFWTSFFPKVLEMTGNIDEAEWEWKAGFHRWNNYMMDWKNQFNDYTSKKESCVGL

Acetylcholinesterase [8] = target: Acetylcholinesterase (Homo sapiens, UniProt P22303); assay: Inhibition of human erythrocyte AChE using acetylthiocholine chloride as substrate incubated for 15 mins by Ellman's method
Chain of Acetylcholinesterase (Homo sapiens, UniProt P22303) (P22303 whole entry): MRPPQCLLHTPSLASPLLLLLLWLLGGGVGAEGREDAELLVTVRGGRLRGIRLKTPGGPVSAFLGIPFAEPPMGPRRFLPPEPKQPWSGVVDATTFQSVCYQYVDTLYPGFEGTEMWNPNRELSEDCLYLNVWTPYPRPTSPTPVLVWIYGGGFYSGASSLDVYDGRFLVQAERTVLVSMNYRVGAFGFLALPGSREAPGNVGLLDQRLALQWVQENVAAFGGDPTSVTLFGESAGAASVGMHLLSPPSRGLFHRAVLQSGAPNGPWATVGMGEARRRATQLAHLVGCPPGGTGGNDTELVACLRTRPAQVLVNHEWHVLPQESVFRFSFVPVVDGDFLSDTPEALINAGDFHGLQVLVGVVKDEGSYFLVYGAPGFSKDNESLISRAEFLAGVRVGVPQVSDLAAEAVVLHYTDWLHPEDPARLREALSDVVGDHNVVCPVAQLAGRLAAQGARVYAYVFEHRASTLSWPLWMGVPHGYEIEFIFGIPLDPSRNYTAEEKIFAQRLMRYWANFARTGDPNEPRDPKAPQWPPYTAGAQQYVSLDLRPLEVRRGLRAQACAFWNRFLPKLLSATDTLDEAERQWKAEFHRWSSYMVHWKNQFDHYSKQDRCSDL

| SMILES | Ratio IC50 [1] | pIC50 [2] | inhibition at 20 µM [3] | pIC50 (Butyrylcholinesterase) | pIC50 (Cholinesterase [4]) | pIC50 (Acetylcholinesterase [5]) | pIC50 (Acetylcholinesterase [6]) | pIC50 (Cholinesterase [7]) | pIC50 (Acetylcholinesterase [8]) |
| --- | --- | --- | --- | --- | --- | --- | --- | --- | --- |
| CCN(CCN1C(=O)c2ccccc2C1=O)Cc1ccccc1OC | 5.1 | 5.16 | < 5% | 4.80 | 4.74 | 6.05 | 5.44 |  |  |
| C#CCN(CCCCCCN1C(=O)c2ccccc2C1=O)Cc1ccccc1 | 1.1 | 5.09 | < 5% | 4.79 | 5.12 | 5.12 | 5.17 |  |  |
| C#CCN(CCCCN1C(=O)c2ccccc2C1=O)Cc1ccccc1 | 2.6 | 5.19 | < 5% | 4.49 | 4.90 | 5.40 | 5.31 |  |  |
| CN(CCCCN1C(=O)c2ccccc2C1=O)Cc1ccccc1 | 5.6 | 5.38 | < 5% | 5.08 | 4.84 | 5.37 | 5.59 |  |  |
| COc1ccccc1CN(C)CCCCCCN1C(=O)c2ccccc2C1=O | 27.8 | 4.95 | < 5% | 4.37 | 4.51 | 6.22 | 5.96 |  |  |
| C#CCN(CCCCN1C(=O)c2ccccc2C1=O)Cc1ccccc1OC | 2.4 | 5.25 | < 5% | 4.41 | 5.08 | 5.29 | 5.47 |  |  |
| COc1ccccc1CN(C)CCCCN1C(=O)c2ccccc2C1=O | 6.1 | 4.94 | < 5% | 5.04 | 5.10 | 5.43 | 5.89 |  |  |
| CCN(CCCCCCN1C(=O)c2ccccc2C1=O)Cc1ccccc1 | 11 | 4.91 | < 5% | 4.74 | 4.96 | 5.47 | 6.00 | 4.80 | 5.43 |
| CCN(CCN1C(=O)c2ccccc2C1=O)Cc1ccccc1 | 2.4 | 5.08 | < 5% | 4.79 | 4.66 | 4.88 | 5.03 |  |  |
| CC(C)N1CCN(CCCCCCN2C(=O)c3ccccc3C2=O)CC1 | 2.2 | 4.88 | < 5% | 4.55 | 4.71 | 5.20 | 5.06 |  |  |
| CN(CCN1C(=O)c2ccccc2C1=O)Cc1ccccc1 | 1.4 | 5.14 | < 5% | 4.58 | 4.65 | 4.80 | 4.80 |  |  |
| CC(C)N1CCN(CCCCCN2C(=O)c3ccccc3C2=O)CC1 | 4.4 | 4.90 | < 5% | 4.79 | 4.46 | 5.27 | 5.10 |  |  |
| CCN(CCCN1C(=O)c2ccccc2C1=O)Cc1ccccc1 | 2.8 | 5.16 | < 5% | 4.88 | 5.03 | 5.96 | 5.48 |  |  |
| CC(C)N1CCN(CCCCN2C(=O)c3ccccc3C2=O)CC1 | 4.4 | 5.05 | < 5% | 4.75 | 4.63 | 5.41 | 5.28 |  |  |
| C#CCN(CCCN1C(=O)c2ccccc2C1=O)Cc1ccccc1OC | 0.43 | 5.12 | < 5% | 5.28 | 5.24 | 5.39 | 4.87 |  |  |
| C#CCN(CCCCCCN1C(=O)c2ccccc2C1=O)Cc1ccccc1OC | 2.7 | 5.04 | < 5% | 4.65 | 4.87 | 5.37 | 5.31 |  |  |
| C#CCN(CCCCCN1C(=O)c2ccccc2C1=O)Cc1ccccc1OC | 2.7 | 5.20 | < 5% | 4.35 | 4.58 | 4.85 | 5.02 |  |  |
| CCN(CCCCCCN1C(=O)c2ccccc2C1=O)Cc1ccccc1OC | 19.2 | 4.93 | < 5% | 4.83 | 5.14 | 6.48 | 6.42 | 5.05 | 6.23 |
| COc1ccccc1CN(C)CCN1C(=O)c2ccccc2C1=O | 1.9 | 5.08 | < 5% | 4.83 | 4.92 | 4.86 | 5.21 |  |  |
| COc1ccccc1CN(C)CCCN1C(=O)c2ccccc2C1=O | 0.8 | 5.01 | < 5% | 4.56 | 5.43 | 5.01 | 5.34 |  |  |
| CCN(CCCCN1C(=O)c2ccccc2C1=O)Cc1ccccc1OC | 238 | 5.03 | < 5% | 4.72 | 4.51 | 7.40 | 6.89 | 4.89 | 6.55 |
| C#CCN[C@@H]1CCc2ccccc21 [RASAGILINE] |  |  |  |  |  |  |  | 5.32 | 7.72 |
| CCN(CCCCN1C(=O)c2ccccc2C1=O)Cc1ccccc1 | 22.8 | 5.16 | < 5% | 4.88 | 5.01 | 6.22 | 6.37 | 4.82 | 6.17 |
| CN(CCCCCCN1C(=O)c2ccccc2C1=O)Cc1ccccc1 | 8.5 | 5.08 | < 5% | 4.68 | 4.75 | 5.41 | 5.68 |  |  |
| CCN(CCCN1C(=O)c2ccccc2C1=O)Cc1ccccc1OC | 12.6 | 5.33 | < 5% | 5.03 | 4.95 | 6.40 | 6.05 | 4.84 | 5.35 |
| CN(CCCN1C(=O)c2ccccc2C1=O)Cc1ccccc1 | 2.8 | 5.21 | < 5% | 4.64 | 4.64 | 4.89 | 5.09 |  |  |
| CC(C)N1CCN(CCCN2C(=O)c3ccccc3C2=O)CC1 | 2.7 | 4.98 | < 5% | 4.48 | 4.46 | 5.08 | 4.89 |  |  |
| C#CCN(CCCCCN1C(=O)c2ccccc2C1=O)Cc1ccccc1 | 4.1 | 5.23 | < 5% | 4.23 | 4.86 | 4.98 | 5.47 |  |  |
